In experiment [1] the target is NAD-dependent protein deacylase sirtuin-5, mitochondrial (Homo sapiens, UniProt Q9NXA8). The experiment in a line: SIRT5 desuccinylase inhibitors, dose response, biochemical, fluorescence imaging, cherry-pick, set 5 (AID 720591).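 Also: desuccinylation of succinyl peptide AMC substrate read as fluorescence after trypsin release; potency of inhibitors that lower fluorescence and may act on trypsin instead.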
Another experiment addresses Paired box protein Pax-8 (Homo sapiens, UniProt Q06710). The experiment in a line: inhibitors of PAX8-driven TPO luciferase reporter, dose response, RMG-I cells, cherry-pick (AID 687027).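 Also: luciferase reporter driven by Pax8 target thyroperoxidase promoter measured by SteadyGlo luminescence.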 It counts as functional, cell-based.
The nature of experiment [2]: IOSE-T80 ovarian epithelial cell cytotoxicity, dose response, cytotoxicity control for PAX8 inhibitor project, plate reader, dry powder samples (AID 743045). It counts as functional, cell-based.
Experiment [3] in a line: NIH:OVCAR-3 ovarian cancer cell cytotoxicity, dose response, PAX8 inhibitor project, plate reader, dry powder samples (AID 743044). It counts as functional, cell-based.
Experiment [4] is described as follows: IGROV1 ovarian cancer cell cytotoxicity, dose response, PAX8 inhibitor project, plate reader, dry powder samples (AID 743043). It counts as functional, cell-based. As to conditions: IGROV-1.
A short description of experiment [5]: cytotoxicity in OVCAR8 ovarian cancer cells, dose response, PAX8 project, cell-based, plate reader, dry powder samples (AID 743197). It counts as functional. As to conditions: OVCAR-8.
The nature of experiment [6]: cytotoxicity in HEK-293T cells, dose response, cytotoxicity control for TCR NF-kB inhibitor project, luminescence, T-cell screen hits (AID 489026).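 Also: cells exposed to compound about 14 hours before the viability readout.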 It counts as functional, cell-based.
The nature of experiment [7]: HEK293 cell cytotoxicity, dose response, cytotoxicity control, dry powder samples (AID 720567). It counts as functional, cell-based.
Experiment [8] in a line: Late-stage results from the probe development effort to identify antagonists of arginine vasopressin receptor 1a (AVPR1a): fluorescence-based cell-based dose response AVPR1a inhibition assay. It counts as functional.
Another experiment has as its target Vasopressin V1b receptor (Homo sapiens, UniProt P47901). In words: Late-stage results from the probe development effort to identify antagonists of arginine vasopressin receptor 1a (AVPR1a): fluorescence-based cell-based dose response AVPR1b inhibition counterscreen assay. It counts as functional.
A further experiment addresses Vasopressin V2 receptor (Homo sapiens, UniProt P30518). In words: Late-stage results from the probe development effort to identify antagonists of arginine vasopressin receptor 1a (AVPR1a): fluorescence-based cell-based dose response AVPR2 inhibition counterscreen assay. The class given is functional.
A short description of experiment [9]: Late-stage results from the probe development effort to identify antagonists of arginine vasopressin receptor 1a (AVPR1a): fluorescence-based cell-based dose response OXTR inhibition counterscreen assay. The class given is functional.
Experiment [10] addresses Glucose-6-phosphate 1-dehydrogenase (Homo sapiens, UniProt P11413). The experiment in a line: human G6PD enzyme inhibitors, dose response, selectivity assay for P. falciparum G6PD inhibitor project, biochemical, fluorescence (AID 504792). It counts as functional.
Experiment [11] can be described thus: Shn3 3'UTR reporter inhibitors, dose response, cell-based, Clone20 osteoblasts, firefly luciferase, cherry-picked (AID 624132).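 Also: firefly luciferase luminescence from reporter carrying the Shn3 3'UTR in osteoblasts.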 The class given is functional.
Experiment [12] can be described thus: HepG2 cell cytotoxicity, dose response, cytotoxicity control for Shn3 inhibitor project, CellTiter-Glo, cherry-picked (AID 624134). The class given is functional, cell-based.
The nature of experiment [13]: control 3'UTR Renilla luciferase suppression, dose response, counter-screen for Shn3 inhibitor project, cell-based, Clone20-Shn3RL, cherry-picked (AID 624133). The class given is functional.
The nature of experiment [14]: HeLa 2N DNA content increase, dose response, cell-based, IC50 (AID 1117349). It counts as functional.
The nature of experiment [15]: cytotoxicity toward HCT116 cells – cell-based, CellTiter-Glo luminescence, IC50, dose response (AID 1117332). The class given is functional. The note with it: HCT-116.
A short description of experiment [16]: cytotoxicity toward Colo320 cells – cell-based, CellTiter-Glo luminescence, IC50, dose response (AID 1117334). It counts as functional. As to conditions: COLO 320.
Experiment [17] in a line: HeLa 4N DNA content increase, dose response, cell-based, IC50 (AID 1117351). The class given is functional.
Experiment [18] can be described thus: CellTiter-Glo luminescent dose response of DLD-1 viability loss (AID 1117352). The class given is functional.
Experiment [19] can be described thus: HCT116 cell viability decrease, GSK3B pretreatment – CellTiter-Glo, IC50, dose response (AID 1117339). It counts as functional. The note with it: HCT-116.
Experiment [20] is described as follows: Dose-response inhibition of insulin secretion in a rat insulinoma line at 5 mM glucose (AID 1117331). The class given is functional, cell-based. The note with it: INS-1E.
A further experiment is described as follows: cells. As to conditions: INS-1E. It counts as functional, cell-based.
The target of experiment [21] is E3 ubiquitin-protein ligase Mdm2 (Homo sapiens, UniProt Q00987). The experiment in a line: enhancers of MDM2-luciferase reporter signal, concentration-effect titration, project on inhibitors of MDM2 ubiquitin ligase, cellular assay, luminescent readout, 384-well plate format (AID 1394).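 Also: MDM2 E3 inhibitors raise luminescence so EC50 is for signal enhancement.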 It counts as functional.
Experiment [22] is described as follows: Luminescence Cell-Based Dose Retest to Confirm Inhibitors of Cancer Stem Cells. [Related pubchem assays (depositor defined):AID2717, AID2721]. The class given is functional. As to conditions: Homo sapiens.
A short description of experiment [23]: Inhibition of T. cruzi Tulahuen strain amastigotes in L-6 muscle cells Measured in Cell-Based and Microorganism Combination System Using Plate Reader - 2138-03_Inhibitor_Dose_CherryPick_Activity. The class given is functional. The note with it: Rattus norvegicus, L6.
A short description of experiment [24]: cytotoxicity in L-6 rat myocytes, dose response, cytotoxicity control, cell-based, plate reader, cherry-pick (AID 651896). The class given is functional.
The nature of experiment [25]: Inhibition of Plasmodium falciparum NF54 Measured in Cell-Based System Using Plate Reader - 2138-11_Inhibitor_Dose_CherryPick_Activity. The class given is functional.
The nature of experiment [26]: L. donovani amastigote growth inhibition, dose response, axenic amastigotes, plate reader, cherry pick (AID 651891). It counts as functional, cell-based. As to conditions: Leishmania donovani.
Experiment [27] can be described thus: intracellular Trypanosoma cruzi inhibitors in host cells – cell-based, plate reader, cherry-pick samples, set 3, dose response (AID 651818).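 Also: compounds incubated with infected cells for about four days.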 It counts as functional.
The nature of experiment [28]: T. b. rhodesiense proliferation inhibition, dose response, STIB900 strain, plate reader, cherry pick (AID 651893). The class given is functional, cell-based. The note with it: Trypanosoma brucei.
A short description of experiment [29]: T. cruzi growth inhibition in host cells, dose response, cell-based, plate reader, dry powder, set 2 (AID 652275). It counts as functional.
A short description of experiment [30]: growth inhibition of intracellular T. cruzi, dose response, cell-based, plate reader, dry powder samples (AID 651845). It counts as functional.
Experiment [31] is described as follows: T. cruzi intracellular amastigote growth inhibition, dose response, imaging, CA-I/72 strain, bovine embryo skeletal muscle, dry powder (AID 651885). The class given is functional, cell-based.

Active and inactive are the calls of the source. Some results are limits rather than exact numbers.

Chain of Glucose-6-phosphate 1-dehydrogenase (P11413 whole entry): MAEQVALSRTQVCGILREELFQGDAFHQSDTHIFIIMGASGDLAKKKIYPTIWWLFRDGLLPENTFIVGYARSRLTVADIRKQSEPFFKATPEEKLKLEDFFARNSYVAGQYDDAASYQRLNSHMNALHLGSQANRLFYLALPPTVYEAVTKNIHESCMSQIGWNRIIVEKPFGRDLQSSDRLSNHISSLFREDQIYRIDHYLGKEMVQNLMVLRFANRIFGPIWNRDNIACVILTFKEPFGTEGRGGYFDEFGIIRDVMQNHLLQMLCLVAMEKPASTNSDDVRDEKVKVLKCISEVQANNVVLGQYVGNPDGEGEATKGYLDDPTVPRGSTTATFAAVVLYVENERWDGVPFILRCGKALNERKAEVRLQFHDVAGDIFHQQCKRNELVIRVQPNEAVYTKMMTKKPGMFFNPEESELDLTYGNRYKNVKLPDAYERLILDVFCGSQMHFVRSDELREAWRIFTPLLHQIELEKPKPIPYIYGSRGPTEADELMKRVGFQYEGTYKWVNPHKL
Chain of Vasopressin V2 receptor (P30518 whole entry): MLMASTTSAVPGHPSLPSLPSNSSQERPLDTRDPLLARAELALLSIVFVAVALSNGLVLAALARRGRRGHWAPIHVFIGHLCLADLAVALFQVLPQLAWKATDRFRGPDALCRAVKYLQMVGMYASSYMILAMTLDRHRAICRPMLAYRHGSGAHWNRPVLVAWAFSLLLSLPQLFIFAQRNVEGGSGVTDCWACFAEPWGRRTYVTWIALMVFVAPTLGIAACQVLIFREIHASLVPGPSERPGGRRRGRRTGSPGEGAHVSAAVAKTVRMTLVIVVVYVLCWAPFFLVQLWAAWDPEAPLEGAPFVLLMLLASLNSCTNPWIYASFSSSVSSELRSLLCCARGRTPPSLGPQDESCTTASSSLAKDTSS
Chain of E3 ubiquitin-protein ligase Mdm2 (Q00987 whole entry): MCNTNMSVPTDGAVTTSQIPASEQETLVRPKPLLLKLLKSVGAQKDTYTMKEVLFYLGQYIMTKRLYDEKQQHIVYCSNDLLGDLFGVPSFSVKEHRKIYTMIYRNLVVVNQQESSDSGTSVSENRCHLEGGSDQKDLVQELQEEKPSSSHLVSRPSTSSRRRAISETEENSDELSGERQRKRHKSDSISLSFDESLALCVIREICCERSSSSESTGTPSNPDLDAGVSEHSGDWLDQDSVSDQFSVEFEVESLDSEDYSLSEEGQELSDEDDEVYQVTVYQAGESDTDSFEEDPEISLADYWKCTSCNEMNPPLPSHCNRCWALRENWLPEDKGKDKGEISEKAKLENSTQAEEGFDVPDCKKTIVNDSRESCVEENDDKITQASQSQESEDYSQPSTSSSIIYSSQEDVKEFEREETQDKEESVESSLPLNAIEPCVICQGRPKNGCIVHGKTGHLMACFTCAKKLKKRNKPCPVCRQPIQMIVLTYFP
Chain of Paired box protein Pax-8 (Q06710 whole entry): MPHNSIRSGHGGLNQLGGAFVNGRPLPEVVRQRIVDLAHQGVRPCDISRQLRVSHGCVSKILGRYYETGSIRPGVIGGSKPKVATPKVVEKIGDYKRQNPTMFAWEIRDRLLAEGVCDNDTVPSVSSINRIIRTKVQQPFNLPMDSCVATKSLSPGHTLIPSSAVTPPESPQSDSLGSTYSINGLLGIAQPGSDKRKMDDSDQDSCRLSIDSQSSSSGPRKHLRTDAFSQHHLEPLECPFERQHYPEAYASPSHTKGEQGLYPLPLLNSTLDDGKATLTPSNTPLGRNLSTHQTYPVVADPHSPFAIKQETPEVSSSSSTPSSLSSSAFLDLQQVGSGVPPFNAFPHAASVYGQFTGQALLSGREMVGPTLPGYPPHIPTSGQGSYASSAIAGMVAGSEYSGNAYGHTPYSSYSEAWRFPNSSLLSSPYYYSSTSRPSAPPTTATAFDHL
Chain of NAD-dependent protein deacylase sirtuin-5, mitochondrial (Q9NXA8 whole entry): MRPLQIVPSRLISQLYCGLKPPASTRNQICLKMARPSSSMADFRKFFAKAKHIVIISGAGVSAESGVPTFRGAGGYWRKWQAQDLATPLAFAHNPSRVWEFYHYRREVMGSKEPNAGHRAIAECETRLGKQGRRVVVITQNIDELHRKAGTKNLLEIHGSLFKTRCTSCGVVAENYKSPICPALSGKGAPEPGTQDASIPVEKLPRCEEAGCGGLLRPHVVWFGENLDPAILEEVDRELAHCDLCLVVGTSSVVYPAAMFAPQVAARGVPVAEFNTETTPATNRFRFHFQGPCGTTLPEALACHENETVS
Chain of Vasopressin V1b receptor (P47901 whole entry): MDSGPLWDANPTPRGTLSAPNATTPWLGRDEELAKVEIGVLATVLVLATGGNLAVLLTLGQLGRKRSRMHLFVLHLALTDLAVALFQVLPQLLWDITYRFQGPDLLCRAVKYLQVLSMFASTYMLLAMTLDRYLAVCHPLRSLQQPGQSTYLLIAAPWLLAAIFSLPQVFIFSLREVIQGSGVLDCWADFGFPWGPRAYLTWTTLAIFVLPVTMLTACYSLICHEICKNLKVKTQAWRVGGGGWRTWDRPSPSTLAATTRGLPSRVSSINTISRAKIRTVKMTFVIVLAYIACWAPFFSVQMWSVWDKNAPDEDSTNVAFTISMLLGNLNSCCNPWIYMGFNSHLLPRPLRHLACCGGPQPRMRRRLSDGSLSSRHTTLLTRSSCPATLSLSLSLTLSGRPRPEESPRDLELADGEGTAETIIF

`COc1ccc(-n2c(/C=C/c3ccc4c(c3)OCO4)nc3ccccc3c2=O)cc1`: the AC50 in experiment [1] was > 30 µM (inactive).
For `Cc1ccc(S(=O)(=O)Nc2ccc3c(c2)C(=O)N([C@H](C)CO)C[C@H](C)[C@@H](CN(C)Cc2ccc(C(F)(F)F)cc2)OCCCC[C@H](C)O3)cc1`, the AC50 on Paired box protein Pax-8 is 4.62 µM (active); in experiment [2] it was 18.1 µM (active); in [3], 10.3 µM (active); in experiment [4], 15 µM (active); in experiment [5], 16.6 µM (active).
As to `CCOC(=O)COc1cccc2c(=O)n(CC(=O)NCc3ccccc3)ccc12`, in experiment [6], the IC50 is > 80 µM (inactive). In addition, in [7], the AC50 was > 30 µM (inactive).
For `Cc1ccc(N2CCC(C(=O)N(CC3CC3)c3ccc(Cl)cc3)CC2)nc1`, the IC50 was 0.0201 µM (active) in experiment [8], 20.8 µM (inactive) on Vasopressin V1b receptor, 12.3 µM (inactive) at Vasopressin V2 receptor and 12.4 µM (inactive) in experiment [9].
As for `O=C(Nc1ccc([N+](=O)[O-])cc1Cl)c1cc(Cl)ccc1O` [NICLOSAMIDE], the IC50 is > 80 µM (inactive) in experiment [10]; > 10 µM (inactive) in experiment [14]; 0.00144 µM (active) in experiment [15]; 0.00826 µM (active) in experiment [16]; > 10 µM (inactive) in [17]; 0.00349 µM (active) in experiment [18]. Besides, the IC50 in experiment [19] is 0.00295 µM (active). Also, the AC50 in experiment [11] is 3 µM (active); in [12], 1.62 µM (active); in experiment [13] it was 0.837 µM (active).
`C#CCOC(C(=O)OCCN(C)C)(c1ccccc1)c1ccccc1`: the IC50 was 9.26 µM (inactive) in experiment [20] and 9.67 µM (inactive) in “cells”.
In the case of `N#Cc1c(N)nc2c(c1-c1cccc(O)c1)CCCCCC2`, the EC50 in experiment [21] was 13.8 µM (not active). Further, the AC50 in [22] is 5.01 µM (active).
On to `C[C@H]1CN([C@@H](C)CO)C(=O)c2cccc(NC(=O)c3ccncc3)c2O[C@@H]1CN(C)Cc1ccccc1`, for which the IC50 in experiment [23] is 4.83 µM (inactive); in experiment [24] it was > 100 µM (inactive); in experiment [25], 4.83 µM (inactive); in [26], 84.4 µM (inactive); in experiment [28], 35.1 µM (inactive); in [31], 0.00942 µM (active). Further, the AC50 in experiment [27] was 0.08 µM (active); in [29] it was 0.0123 µM (active); in [30], 0.0123 µM (active).
